Test system: Scirpus juncoides
Assay: Test Example 2: herbicidal effect test by treatment during growing period in paddy rice cultivation (seven days after seeding)
Type: in vivo
Conditions: 120 g/10a active ingredient, assessed 14 days after treatment, dry weight vs untreated area
Method: (§1) This test was conducted in a double system per one agent solution concentration area, and the herbicidal rates (%) were determined by the following equation (Math. 1) on 14 days after the treatment with the agents. Herbicidal Rate (%)={1-(Average Dry Weight (g) of Plant of Treated Area)/(Average Dry Weight (g) of Plant of Untreated Area)}×100 [Math. 1]
(§2) Herbicidal Effect Test by Treatment During Growing Period in Paddy Rice Cultivation
(§3) Wagner pots with an area of 1/10000 ares were filled with a paddy soil, and after adding water, a compound fertilizer (N:P:K=17:17:17) was mixed, followed by soil puddling. Then, Echinochloa crus-galli, broad leaf weeds (Lindernia pyxidaria and Monochoria vaginalis) and Scirpus juncoides, 30 seeds each, were sown in a depth of 0 to 1 cm. Water was poured immediately after seeding, and the water depth was kept at about 3 cm. The subsequent management was conducted in a glass greenhouse. Emulsions prepared using the compounds in Table 4 below according to Formulation Example 5 were diluted with water seven days after seeding, and a certain amount of the water-diluted agent solutions were dropped. The converted amount of the applied active ingredient corresponded to 120 g per 10 ares. The test was conducted in a double system per one agent solution concentration area, and the herbicidal rates (%) were determined by the equation (Math. 1) on 14 days after the treatment with the agents. […] The compound numbers in Table 4 are the same as those in Table 1 and Table 2 above.

Structure (SMILES) | Herbicidal rate (%) Scirpus juncoides [%]
Cc1c(Cc2ccccc2NS(=O)(=O)C(F)(F)F)c(=O)on1CCOC(C)C [Compound 1-155] | 80
Cc1c(Cc2ccccc2N(S(=O)(=O)C(F)(F)F)S(=O)(=O)C(F)(F)F)c(=O)on1C(C)c1ccccc1Cl (stereo not shown) [Compound 1-1032] | 40

Same assay, conditions: 120 g/10a, rated 14 days after treatment, paddy soil pots

Structure (SMILES) | herbicidal rate, Scirpus juncoides [%]
Cc1c(Cc2ccccc2N(S(=O)(=O)C(F)(F)F)S(=O)(=O)C(F)(F)F)c(=O)on1C(C)c1ccsc1 (stereo not shown) [Compound 1-1057] | 80
Cc1c(Cc2ccccc2N(S(=O)(=O)C(F)(F)F)S(=O)(=O)C(F)(F)F)c(=O)on1Cc1cccs1 [Compound 1-1054] | 90
Cc1c(Cc2ccccc2N(S(=O)(=O)C(F)(F)F)S(=O)(=O)C(F)(F)F)c(=O)on1Cc1ccsc1 [Compound 1-1055] | 80

Test system: Echinochloa crus-galli
Assay: as above
Type: in vivo
Conditions: 120 g/10a active ingredient, assessed 14 days after treatment, dry weight vs untreated area
Method: as §1, §2, §3

Structure (SMILES) | Herbicidal rate (%) Echinochloa crus-galli [%]
Cc1c(Cc2ccccc2NS(=O)(=O)C(F)(F)F)c(=O)on1CCOC(C)C [Compound 1-155] | 100
Cc1c(Cc2ccccc2N(S(=O)(=O)C(F)(F)F)S(=O)(=O)C(F)(F)F)c(=O)on1C(C)c1ccccc1Cl (stereo not shown) [Compound 1-1032] | 40

Same assay, conditions: 120 g/10a, rated 14 days after treatment, paddy soil pots

Structure (SMILES) | herbicidal rate, Echinochloa crus-galli [%]
Cc1c(Cc2ccccc2N(S(=O)(=O)C(F)(F)F)S(=O)(=O)C(F)(F)F)c(=O)on1C(C)c1ccsc1 (stereo not shown) [Compound 1-1057] | 80
Cc1c(Cc2ccccc2N(S(=O)(=O)C(F)(F)F)S(=O)(=O)C(F)(F)F)c(=O)on1Cc1cccs1 [Compound 1-1054] | 90
Cc1c(Cc2ccccc2N(S(=O)(=O)C(F)(F)F)S(=O)(=O)C(F)(F)F)c(=O)on1Cc1ccsc1 [Compound 1-1055] | 80

Test system: broad leaf weeds (Lindernia pyxidaria and Monochoria vaginalis)
Assay: as above
Type: in vivo
Conditions: Lindernia pyxidaria, 120 g/10a active ingredient, assessed 14 days after treatment, dry weight vs untreated area
Method: as §1, §2, §3

Structure (SMILES) | Herbicidal rate (%) Lindernia pyxidaria [%]
Cc1c(Cc2ccccc2NS(=O)(=O)C(F)(F)F)c(=O)on1CCOC(C)C [Compound 1-155] | 60
Cc1c(Cc2ccccc2N(S(=O)(=O)C(F)(F)F)S(=O)(=O)C(F)(F)F)c(=O)on1C(C)c1ccccc1Cl (stereo not shown) [Compound 1-1032] | 40

Same assay, conditions: Lindernia pyxidaria, 120 g/10a, rated 14 days after treatment, paddy soil pots

Structure (SMILES) | herbicidal rate, Lindernia pyxidaria [%]
Cc1c(Cc2ccccc2N(S(=O)(=O)C(F)(F)F)S(=O)(=O)C(F)(F)F)c(=O)on1C(C)c1ccsc1 (stereo not shown) [Compound 1-1057] | 60
Cc1c(Cc2ccccc2N(S(=O)(=O)C(F)(F)F)S(=O)(=O)C(F)(F)F)c(=O)on1Cc1cccs1 [Compound 1-1054] | 100
Cc1c(Cc2ccccc2N(S(=O)(=O)C(F)(F)F)S(=O)(=O)C(F)(F)F)c(=O)on1Cc1ccsc1 [Compound 1-1055] | 40

Same assay, conditions: Monochoria vaginalis, 120 g/10a active ingredient, assessed 14 days after treatment, dry weight vs untreated area

Structure (SMILES) | Herbicidal rate (%) Monochoria vaginalis [%]
Cc1c(Cc2ccccc2NS(=O)(=O)C(F)(F)F)c(=O)on1CCOC(C)C [Compound 1-155] | 60
Cc1c(Cc2ccccc2N(S(=O)(=O)C(F)(F)F)S(=O)(=O)C(F)(F)F)c(=O)on1C(C)c1ccccc1Cl (stereo not shown) [Compound 1-1032] | 40

Same assay, conditions: Monochoria vaginalis, 120 g/10a, rated 14 days after treatment, paddy soil pots

Structure (SMILES) | herbicidal rate, Monochoria vaginalis [%]
Cc1c(Cc2ccccc2N(S(=O)(=O)C(F)(F)F)S(=O)(=O)C(F)(F)F)c(=O)on1C(C)c1ccsc1 (stereo not shown) [Compound 1-1057] | 80
Cc1c(Cc2ccccc2N(S(=O)(=O)C(F)(F)F)S(=O)(=O)C(F)(F)F)c(=O)on1Cc1cccs1 [Compound 1-1054] | 100
Cc1c(Cc2ccccc2N(S(=O)(=O)C(F)(F)F)S(=O)(=O)C(F)(F)F)c(=O)on1Cc1ccsc1 [Compound 1-1055] | 60

Test system: Scirpus juncoides
Assay: Test Example 1: herbicidal effect test by treatment of rice paddy soil (immediately after seeding)
Type: in vivo
Conditions: 120 g/10a active ingredient, 14 days after treatment, dry weight vs untreated area
Method: (§4) Herbicidal Effect Test by Treatment of Rice Paddy Soil
(§5) Wagner pots with an area of 1/10000 ares were filled with a paddy soil, and after adding water, a compound fertilizer (N:P:K=17:17:17) was added, followed by soil puddling. Then, Echinochloa crus-galli, broad leaf weeds (Lindernia pyxidaria and Monochoria vaginalis) and Scirpus juncoides, 30 seeds each, were sown in a depth of 0 to 1 cm. Water was poured immediately after seeding, and the water depth was kept at about 3 cm. The subsequent management was conducted in a glass greenhouse. Immediately after that, emulsions prepared using the compounds in Table 3 below according to Formulation Example 5 were diluted with water, and a certain amount of the water-diluted agent solutions were dropped. The converted amount of the applied active ingredient corresponded to 120 g per 10 ares.
as §1
(§6) The compound numbers in Table 3 are the same as those in Table 1 and Table 2 above.

Structure (SMILES) | Herbicidal rate (%) Scirpus juncoides [%]
Cc1c(Cc2ccccc2N(S(=O)(=O)C(F)(F)F)S(=O)(=O)C(F)(F)F)c(=O)on1C(C)c1ccsc1 (stereo not shown) [Compound 1-1057] | 90
Cc1c(Cc2ccccc2N(S(=O)(=O)C(F)(F)F)S(=O)(=O)C(F)(F)F)c(=O)on1Cc1cccs1 [Compound 1-1054] | 90
Cc1c(Cc2ccccc2N(S(=O)(=O)C(F)(F)F)S(=O)(=O)C(F)(F)F)c(=O)on1Cc1ccsc1 [Compound 1-1055] | 90

Same assay, conditions: 120 g/10a active ingredient, dry weight vs untreated area, 14 days after treatment

Structure (SMILES) | Herbicidal rate (%) Scirpus juncoides [%]
Cc1c(Cc2ccccc2NS(=O)(=O)C(F)(F)F)c(=O)on1CCOC(C)C [Compound 1-155] | 80
Cc1c(Cc2ccccc2N(S(=O)(=O)C(F)(F)F)S(=O)(=O)C(F)(F)F)c(=O)on1C(C)c1ccccc1Cl (stereo not shown) [Compound 1-1032] | 90

Test system: Echinochloa crus-galli
Assay: as above
Type: in vivo
Conditions: 120 g/10a active ingredient, 14 days after treatment, dry weight vs untreated area
Method: as §4, §5, §1, §6

Structure (SMILES) | Herbicidal rate (%) Echinochloa crus-galli [%]
Cc1c(Cc2ccccc2N(S(=O)(=O)C(F)(F)F)S(=O)(=O)C(F)(F)F)c(=O)on1C(C)c1ccsc1 (stereo not shown) [Compound 1-1057] | 90
Cc1c(Cc2ccccc2N(S(=O)(=O)C(F)(F)F)S(=O)(=O)C(F)(F)F)c(=O)on1Cc1cccs1 [Compound 1-1054] | 90
Cc1c(Cc2ccccc2N(S(=O)(=O)C(F)(F)F)S(=O)(=O)C(F)(F)F)c(=O)on1Cc1ccsc1 [Compound 1-1055] | 60

Same assay, conditions: 120 g/10a active ingredient, dry weight vs untreated area, 14 days after treatment

Structure (SMILES) | Herbicidal rate (%) Echinochloa crus-galli [%]
Cc1c(Cc2ccccc2NS(=O)(=O)C(F)(F)F)c(=O)on1CCOC(C)C [Compound 1-155] | 90
Cc1c(Cc2ccccc2N(S(=O)(=O)C(F)(F)F)S(=O)(=O)C(F)(F)F)c(=O)on1C(C)c1ccccc1Cl (stereo not shown) [Compound 1-1032] | 80

Test system: broad leaf weeds (Lindernia pyxidaria and Monochoria vaginalis)
Assay: as above
Type: in vivo
Conditions: Lindernia pyxidaria, 120 g/10a active ingredient, 14 days after treatment, dry weight vs untreated area
Method: as §4, §5, §1, §6

Structure (SMILES) | Herbicidal rate (%) Lindernia pyxidaria [%]
Cc1c(Cc2ccccc2N(S(=O)(=O)C(F)(F)F)S(=O)(=O)C(F)(F)F)c(=O)on1C(C)c1ccsc1 (stereo not shown) [Compound 1-1057] | 80
Cc1c(Cc2ccccc2N(S(=O)(=O)C(F)(F)F)S(=O)(=O)C(F)(F)F)c(=O)on1Cc1cccs1 [Compound 1-1054] | 100
Cc1c(Cc2ccccc2N(S(=O)(=O)C(F)(F)F)S(=O)(=O)C(F)(F)F)c(=O)on1Cc1ccsc1 [Compound 1-1055] | 100

Same assay, conditions: Lindernia pyxidaria, 120 g/10a active ingredient, dry weight vs untreated area, 14 days after treatment

Structure (SMILES) | Herbicidal rate (%) Lindernia pyxidaria [%]
Cc1c(Cc2ccccc2NS(=O)(=O)C(F)(F)F)c(=O)on1CCOC(C)C [Compound 1-155] | 60
Cc1c(Cc2ccccc2N(S(=O)(=O)C(F)(F)F)S(=O)(=O)C(F)(F)F)c(=O)on1C(C)c1ccccc1Cl (stereo not shown) [Compound 1-1032] | 90

Same assay, conditions: Monochoria vaginalis, 120 g/10a active ingredient, 14 days after treatment, dry weight vs untreated area

Structure (SMILES) | Herbicidal rate (%) Monochoria vaginalis [%]
Cc1c(Cc2ccccc2N(S(=O)(=O)C(F)(F)F)S(=O)(=O)C(F)(F)F)c(=O)on1C(C)c1ccsc1 (stereo not shown) [Compound 1-1057] | 80
Cc1c(Cc2ccccc2N(S(=O)(=O)C(F)(F)F)S(=O)(=O)C(F)(F)F)c(=O)on1Cc1cccs1 [Compound 1-1054] | 100
Cc1c(Cc2ccccc2N(S(=O)(=O)C(F)(F)F)S(=O)(=O)C(F)(F)F)c(=O)on1Cc1ccsc1 [Compound 1-1055] | 100

Same assay, conditions: Monochoria vaginalis, 120 g/10a active ingredient, dry weight vs untreated area, 14 days after treatment

Structure (SMILES) | Herbicidal rate (%) Monochoria vaginalis [%]
Cc1c(Cc2ccccc2NS(=O)(=O)C(F)(F)F)c(=O)on1CCOC(C)C [Compound 1-155] | 60
Cc1c(Cc2ccccc2N(S(=O)(=O)C(F)(F)F)S(=O)(=O)C(F)(F)F)c(=O)on1C(C)c1ccccc1Cl (stereo not shown) [Compound 1-1032] | 90

Source: patent US11109593B2, “Isoxazolin-5-one derivative and herbicide containing same as active ingredient” (HOKKO CHEMICAL INDUSTRY CO., LTD., priority 2017, dated 2021)
